Where “and” joins values, the source holds several entries; their conditions need not be identical. Equal values may be shown once.
Tests used:
Format in all cases: cell-based
Settings in all cases: 72 hours under normoxia
[1] = test system: EGLN3; assay: Expression of hypoxia-sensitive gene EGLN3 in primary human keratinocytes in culture (RT-qPCR)
Description: (§1) The following protocol was followed: the tests were performed on human keratinocytes in culture, seeded on Greiner brand 48-well plates, coated with bovine collagen I. The plates were prepared according to the following procedure: the solution of bovine collagen I at 0.1 mg/ml was prepared by dilution in phosphate-buffered saline (PBS) of the bovine collagen I solution sold by the company Life Technologies. Each well was immersed with 1 ml of this dilution, which was left at the bottom of the wells for 1 hour at 37° C. At the end of the incubation, the collagen solution was removed and the wells were rinsed twice with 1 ml of PBS. The plates were then stored at 4° C. until the time of use. […] Following this culturing and treatment, the cell lawns were washed with phosphate-buffered saline (or PBS) and then lysed using a lysis buffer proposed in the kit from the supplier Qiagen. The RNAs were then extracted using the RNeasy isolation kit and the Qiacube robotic workstation, both sold by the company Qiagen, according to the manufacturer's instructions. The quantity and quality of RNAs were controlled using the LabChip® GX bioanalyser from Perkin-Elmer before performing reverse transcription (RT) using the Qiagen kit and according to the supplier's recommendations (QuantiTect reverse transcription kit). The cDNA obtained following the RT was then amplified by real-time quantitative PCR using a specific kit sold under the commercial brand LightCycler® 480 SYBR Green Master Mix by the company Roche (Cat. No. 14123920) and an LC480 thermocycler (Roche). The PCRs were performed in triplicate (n=3). The information relating to the primers used is presented below. […] EGNL3/[…] Quantitect Assay Primer; RPL13A/QT00089915/Hs_RPL13A-1-SG Quantitect Assay Primer, and the fluorescent probe of brand name SYBR Green sold by the company specified previously. The PCR was performed in three phases: • denaturing phase for 10 minutes at 95° C., • amplification phase which consists of 45 cycles comprising: • a step of denaturing for 30 seconds at 95° C., • a step of hybridization for 30 seconds at 60° C., and • a step of elongation at 72° C. for 30 seconds, • melting phase for ensuring the quality of the hybridizations. The incorporation of SYBR Green into the amplified DNA was measured continuously during the amplification cycles. These measurements make it possible to obtain curves of fluorescence intensity as a function of the PCR cycles and thus to evaluate the relative expression of each marker from the cycle thresholds (Ct), corresponding to the number of cycles required to appropriately detect a fluorescence level. For each marker and for each condition, the relative expression (RE) value was normalized relative to the expression of the reference gene RPL13. The expression of each gene is normalized by that of the “stable referent gene” (or “housekeeping gene” RPL13A, ribosomal gene). The results (“fold change” (Fc)) are expressed relative to the control. The genes used are hypoxia-sensitive (HIF-1 alpha signalling pathway) and are collated in Table 1 below. Three hypoxia-sensitive genes (BNIP3, EGLN3 and CA9) were used in the following examples. Three tests were performed according to the protocol described above for each gene and for each compound or combination.

[2] = test system: CA9; assay: Expression of hypoxia-sensitive gene CA9 in primary human keratinocytes in culture (RT-qPCR)
Description: as §1

[3] = test system: BNIP3; assay: Expression of hypoxia-sensitive gene BNIP3 in primary human keratinocytes in culture (RT-qPCR)
Description: as §1

In the case of O=C1O[C@H]([C@@H](O)CO)C(O)=C1O [Vitamin C, reference compound], the “EGLN3 expression, fold change relative to the control, mean ± standard deviation” value ([1]; compound 10 μM) is reported as “(1.07 ± 0.29)”, the “EGLN3 expression, fold change relative to the control, single tests” value ([1]; compound 10 μM) is reported as 0.92 and 1.41 and 0.89 and the “EGLN3 expression, fold change relative to the control, mean ± standard deviation” value ([1]; compound 100 μM) is reported as “(1.24 ± 0.24)”. For the same compound, the “EGLN3 expression, fold change relative to the control, single tests” value ([1]; compound 100 μM) was 1.05 and 1.51 and 1.16, the “CA9 expression, fold change relative to the control, mean ± standard deviation” value ([2]; compound 10 μM) was “(1.02 ± 0.52)” and the “CA9 expression, fold change relative to the control, mean ± standard deviation” value ([2]; compound 100 μM) was “(1.22 ± 0.42)”. For the same compound, the “BNIP3 expression, fold change relative to the control, mean ± standard deviation” value ([3]; compound 10 μM) was “(1.01 ± 0.12)”, the “BNIP3 expression, fold change relative to the control, single tests” value ([3]; compound 10 μM) was 1.02 and 1.13 and 0.89 and the “BNIP3 expression, fold change relative to the control, mean ± standard deviation” value ([3]; compound 100 μM) was “(1.12 ± 0.18)”. For the same compound, the “BNIP3 expression, fold change relative to the control, single tests” value ([3]; compound 100 μM) was 0.98 and 1.32 and 1.07.

Oc1ccc(C=Cc2cc(O)cc(O)c2)cc1 [Resveratrol, resveratrol] was tested, and the “EGLN3 expression, fold change relative to the control, mean ± standard deviation” value ([1]; compound 0.3 μM) was “(1.92 ± 0.55)”, the “EGLN3 expression, fold change relative to the control, single tests” value ([1]; compound 0.3 μM) was 1.31 and 2.36 and 2.10 and the “EGLN3 expression, fold change relative to the control, mean ± standard deviation” value ([1]; compound 1 μM) was “(3.65 ± 1.76)”. For the same compound, the “CA9 expression, fold change relative to the control, mean ± standard deviation” value ([2]; compound 0.3 μM) was “(1.63 ± 0.28)”, the “CA9 expression, fold change relative to the control, single tests” value ([2]; compound 0.3 μM) was 1.82 and 1.75 and 1.31 and the “CA9 expression, fold change relative to the control, mean ± standard deviation” value ([2]; compound 1 μM) was “(2.02 ± 0.33)”. For the same compound, the “CA9 expression, fold change relative to the control, single tests” value ([2]; compound 1 μM) was 2.34 and 1.97 and 1.75, the “BNIP3 expression, fold change relative to the control, mean ± standard deviation” value ([3]; compound 0.3 μM) was “(1.26 ± 0.24)” and the “BNIP3 expression, fold change relative to the control, single tests” value ([3]; compound 0.3 μM) was 1.05 and 1.53 and 1.21. For the same compound, the “BNIP3 expression, fold change relative to the control, mean ± standard deviation” value ([3]; compound 1 μM) was “(2.01 ± 0.79)”.

O=C(O)[C@H]1O[C@@H](Oc2cc3oc(-c4ccccc4)cc(=O)c3c(O)c2O)[C@H](O)[C@@H](O)[C@@H]1O [Baicalin, baicalin] was tested, and the “EGLN3 expression, fold change relative to the control, mean ± standard deviation” value ([1]; compound 3 μM) was “(1.19 ± 0.17)”, the “EGLN3 expression, fold change relative to the control, single tests” value ([1]; compound 3 μM) was 1.00 and 1.33 and 1.25 and the “EGLN3 expression, fold change relative to the control, mean ± standard deviation” value ([1]; compound 30 μM) was “(2.07 ± 0.39)”. The “EGLN3 expression, fold change relative to the control, single tests” value ([1]; compound 30 μM) was 1.70 and 2.47 and 2.03, the “CA9 expression, fold change relative to the control, mean ± standard deviation” value ([2]; compound 3 μM) was “(1.06 ± 0.28)” and the “CA9 expression, fold change relative to the control, single tests” value ([2]; compound 3 μM) was 1.27 and 1.18 and 0.74. For the same compound, the “CA9 expression, fold change relative to the control, mean ± standard deviation” value ([2]; compound 30 μM) was “(0.91 ± 0.27)”, the “CA9 expression, fold change relative to the control, single tests” value ([2]; compound 30 μM) was 1.06 and 1.07 and 0.6 and the “BNIP3 expression, fold change relative to the control, mean ± standard deviation” value ([3]; compound 3 μM) was “(1.11 ± 0.15)”. The “BNIP3 expression, fold change relative to the control, single tests” value ([3]; compound 3 μM) was 0.99 and 1.27 and 1.06, the “BNIP3 expression, fold change relative to the control, mean ± standard deviation” value ([3]; compound 30 μM) was “(1.23 ± 0.15)” and the “BNIP3 expression, fold change relative to the control, single tests” value ([3]; compound 30 μM) was 1.14 and 1.41 and 1.15.

In the case of CCCCCCCCCCCCCCCC(=O)OC[C@H](O)[C@H]1OC(=O)C(O)=C1O [Ascorbyl palmitate, ascorbyl palmitate], the “EGLN3 expression, fold change relative to the control, mean ± standard deviation” value ([1]; compound 10 μM) is reported as “(1.35 ± 0.46)”, the “EGLN3 expression, fold change relative to the control, mean ± standard deviation” value ([1]; compound 30 μM) is reported as “(1.16 ± 0.81)” and the “CA9 expression, fold change relative to the control, mean ± standard deviation” value ([2]; compound 10 μM) is reported as “(1.63 ± 0.38)”. For the same compound, the “CA9 expression, fold change relative to the control, single tests” value ([2]; compound 10 μM) was 1.65 and 2.00 and 1.25, the “CA9 expression, fold change relative to the control, mean ± standard deviation” value ([2]; compound 30 μM) was “(0.99 ± 0.80)” and the “BNIP3 expression, fold change relative to the control, mean ± standard deviation” value ([3]; compound 10 μM) was “(1.10 ± 0.22)”. The “BNIP3 expression, fold change relative to the control, single tests” value ([3]; compound 10 μM) was 1.01 and 1.35 and 0.95, the “BNIP3 expression, fold change relative to the control, mean ± standard deviation” value ([3]; compound 30 μM) was “(1.15 ± 0.41)” and the “BNIP3 expression, fold change relative to the control, single tests” value ([3]; compound 30 μM) was 1.04 and 1.6 and 0.81.

With CCOC(=O)c1ccnc(C(=O)OCC)c1 [Stemoxydine, diethyl 2,4-pyridinedicarboxylate] the “EGLN3 expression, fold change relative to the control, mean ± standard deviation” value ([1]; compound 300 μM) was “(2.60 ± 0.83)”, the “EGLN3 expression, fold change relative to the control, single tests” value ([1]; compound 300 μM) was 2.15 and 2.09 and 3.56 and the “CA9 expression, fold change relative to the control, mean ± standard deviation” value ([2]; compound 300 μM) was “(4.53 ± 1.15)”. The “CA9 expression, fold change relative to the control, single tests” value ([2]; compound 300 μM) was 3.87 and 3.86 and 5.86, the “BNIP3 expression, fold change relative to the control, mean ± standard deviation” value ([3]; compound 300 μM) was “(1.76 ± 0.32)” and the “BNIP3 expression, fold change relative to the control, single tests” value ([3]; compound 300 μM) was 1.51 and 1.65 and 2.13.

In the case of CC1=NCC[C@@H](C(=O)O)N1 [Ectoin, ectoin], the “EGLN3 expression, fold change relative to the control, mean ± standard deviation” value ([1]; compound 100 μM) is reported as “(2.90 ± 0.50)”, the “EGLN3 expression, fold change relative to the control, single tests” value ([1]; compound 100 μM) is reported as 2.48 and 2.76 and 3.46 and the “EGLN3 expression, fold change relative to the control, mean ± standard deviation” value ([1]; compound 300 μM) is reported as “(2.62 ± 0.48)”. For the same compound, the “EGLN3 expression, fold change relative to the control, single tests” value ([1]; compound 300 μM) was 2.07 and 2.82 and 2.97, the “CA9 expression, fold change relative to the control, mean ± standard deviation” value ([2]; compound 100 μM) was “(3.01 ± 0.64)” and the “CA9 expression, fold change relative to the control, single tests” value ([2]; compound 100 μM) was 2.73 and 2.55 and 3.74. For the same compound, the “CA9 expression, fold change relative to the control, mean ± standard deviation” value ([2]; compound 300 μM) was “(2.57 ± 0.35)”, the “CA9 expression, fold change relative to the control, single tests” value ([2]; compound 300 μM) was 2.23 and 2.54 and 2.93 and the “BNIP3 expression, fold change relative to the control, mean ± standard deviation” value ([3]; compound 100 μM) was “(1.62 ± 0.27)”. For the same compound, the “BNIP3 expression, fold change relative to the control, single tests” value ([3]; compound 100 μM) was 1.31 and 1.77, the “BNIP3 expression, fold change relative to the control, mean ± standard deviation” value ([3]; compound 300 μM) was “(1.62 ± 0.2)” and the “BNIP3 expression, fold change relative to the control, single tests” value ([3]; compound 300 μM) was 1.40 and 1.79 and 1.66.

Source: patent US10835468B2, “Particular pyridinedicarboxylic acid derivative/antioxidant combination” (L'OREAL, priority 2014, dated 2020)
